According to patent US20020065219A1, “Water soluble thiazolyl peptide derivatives” (priority 2000, published 2002):
In brackets after ≈: the same amount, converted by molar mass. Where two headings read alike, the source gives them in different places.

How the values were obtained:
Experiment in all cases: MIC, broth micro dilution assay (NCCLS)
Format in all cases: cell-based
[1] = system: Staphylococcus aureus A15090
[2] = system: Enterococcus faecalis A20688
[3] = system: Streptococcus pneumoniae A28272
[4] = Mueller-Hinton medium, 35° C., 18 hours
[5] = 50% Mueller-Hinton medium and 50% Todd Hewitt medium, 35° C., 18 hours

| Compound | MIC (μg/mL) against Staphylococcus aureus A15090 [1] [µg/mL] | MIC (μg/mL) against Enterococcus faecalis A20688 [2] [µg/mL] | MIC (μg/mL) against Streptococcus pneumoniae A28272 [3] [µg/mL] | MIC (μg/mL) against Staphylococcus aureus A15090 [1, 4] [µg/mL] | MIC (μg/mL) against Enterococcus faecalis A20688 [2, 4] [µg/mL] | MIC (μg/mL) against Streptococcus pneumoniae A28272 [3, 5] [µg/mL] |
| --- | --- | --- | --- | --- | --- | --- |
| CO/C(C)=C1/NC(=O)C(C(C)O)NC(=O)c2csc(n2)-c2cc(O)c(-c3nc(C(=O)NC(CNCc4cc(OC)c(OC)c(OC)c4)C(N)=O)cs3)nc2-c2csc(n2)C2COC(=O)c3c4c5c(cccc5n3O)COC(=O)C(O[C@H]3C[C@](C)(O)[C@H](N(C)C)[C@H](C)O3)C(OC4)C(NC(=O)c3csc1n3)c1nc(cs1)C(=O)N2 (stereo partly drawn) [Example 70] | 0.25 (≈ 0.153 µM) | 4.0 (≈ 2.45 µM) | 0.06 (≈ 0.0367 µM) | – | – | – |
| COC(C)=C1NC(=O)C(C(C)O)NC(=O)c2csc(n2)-c2cc(O)c(-c3nc(C(=O)NC(CN4CCN(Cc5cc(OC)c(OC)c(OC)c5)CC4)C(N)=O)cs3)nc2-c2csc(n2)C2COC(=O)c3c4c5c(cccc5n3O)COC(=O)C(OC3CC(C)(O)C(N(C)C)C(C)O3)C(OC4)C(NC(=O)c3csc1n3)c1nc(cs1)C(=O)N2 (stereo not drawn) [Example 71] | 1.0 (≈ 0.587 µM) | 2.0 (≈ 1.17 µM) | 0.5 (≈ 0.293 µM) | – | – | – |
| COCCOCCOCCN1CCN(CC(NC(=O)c2csc(-c3nc4c(cc3O)-c3nc(cs3)C(=O)NC(C(C)O)C(=O)NC(=C(C)OC)c3nc(cs3)C(=O)NC3c5nc(cs5)C(=O)NC(COC(=O)c5c6c7c(cccc7n5O)COC(=O)C(OC5CC(C)(O)C(N(C)C)C(C)O5)C3OC6)c3nc-4cs3)n2)C(N)=O)CC1 (stereo not drawn) [Example 72] | 4.0 (≈ 2.4 µM) | 4.0 (≈ 2.4 µM) | 0.5 (≈ 0.299 µM) | – | – | – |
| COC(C)=C1NC(=O)C(C(C)O)NC(=O)c2csc(n2)-c2cc(O)c(-c3nc(C(=O)NC(CN4CC5CC4CN5C)C(N)=O)cs3)nc2-c2csc(n2)C2COC(=O)c3c4c5c(cccc5n3O)COC(=O)C(OC3CC(C)(O)C(N(C)C)C(C)O3)C(OC4)C(NC(=O)c3csc1n3)c1nc(cs1)C(=O)N2 (stereo not drawn) [Example 73] | 0.25 (≈ 0.161 µM) | 2.0 (≈ 1.29 µM) | 0.015 (≈ 0.00968 µM) | – | – | – |
| COC(C)=C1NC(=O)C(C(C)O)NC(=O)c2csc(n2)-c2cc(O)c(-c3nc(C(=O)NC(CN4CC5CC4CN5C)C(N)=O)cs3)nc2-c2csc(n2)C2COC(=O)c3c4c5c(cccc5n3O)COC(=O)C(OC3CC(C)(O)C(N(C)C)C(C)O3)C(OC4)C(NC(=O)c3csc1n3)c1nc(cs1)C(=O)N2 (stereo not drawn) [Example 74] | 0.5 (≈ 0.323 µM) | 2.0 (≈ 1.29 µM) | 0.015 (≈ 0.00968 µM) | – | – | – |
| COC(C)=C1NC(=O)C(C(C)O)NC(=O)c2csc(n2)-c2cc(O)c(-c3nc(C(=O)NC(CN4CCN(Cc5nc(OC)cc(OC)n5)CC4)C(N)=O)cs3)nc2-c2csc(n2)C2COC(=O)c3c4c5c(cccc5n3O)COC(=O)C(OC3CC(C)(O)C(N(C)C)C(C)O3)C(OC4)C(NC(=O)c3csc1n3)c1nc(cs1)C(=O)N2 (stereo not drawn) [Example 77] | 0.125 (≈ 0.0746 µM) | 0.5 (≈ 0.298 µM) | 0.015 (≈ 0.00895 µM) | – | – | – |
| COC(C)=C1NC(=O)C(C(C)O)NC(=O)c2csc(n2)-c2cc(O)c(-c3nc(C(=O)NC(CN4CCCC4CO)C(N)=O)cs3)nc2-c2csc(n2)C2COC(=O)c3c4c5c(cccc5n3O)COC(=O)C(OC3CC(C)(O)C(N(C)C)C(C)O3)C(OC4)C(NC(=O)c3csc1n3)c1nc(cs1)C(=O)N2 (stereo not drawn) [Example 78] | – | – | – | 0.03 (≈ 0.0195 µM) | 0.125 (≈ 0.0812 µM) | 0.007 (≈ 0.00455 µM) |
| COC(C)=C1NC(=O)C(C(C)O)NC(=O)c2csc(n2)-c2cc(O)c(-c3nc(C(=O)NC(CN4CCCC4COc4cccnc4)C(N)=O)cs3)nc2-c2csc(n2)C2COC(=O)c3c4c5c(cccc5n3O)COC(=O)C(OC3CC(C)(O)C(N(C)C)C(C)O3)C(OC4)C(NC(=O)c3csc1n3)c1nc(cs1)C(=O)N2 (stereo not drawn) [Example 79] | 0.06 (≈ 0.0371 µM) | 0.125 (≈ 0.0774 µM) | 0.001 (≈ 0.000619 µM) | – | – | – |
| COCC(Cn1ccnc1)SCC(NC(=O)c1csc(-c2nc3c(cc2O)-c2nc(cs2)C(=O)NC(C(C)O)C(=O)NC(=C(C)OC)c2nc(cs2)C(=O)NC2c4nc(cs4)C(=O)NC(COC(=O)c4c5c6c(cccc6n4O)COC(=O)C(OC4CC(C)(O)C(N(C)C)C(C)O4)C2OC5)c2nc-3cs2)n1)C(N)=O (stereo not drawn) [Example 80] | – | – | – | 0.25 (≈ 0.155 µM) | 0.125 (≈ 0.0776 µM) | 0.03 (≈ 0.0186 µM) |
